Data from US11066396B2 (priority 2016, dated 2021).

What was measured:
HDAC1 = HDAC1 (Homo sapiens (Human), UniProt Q13547); conditions: read-out: HDAC1 IC50
Method: Assay protocol: In brief, compounds were titrated in 100% DMSO via accoustic dispensing directly to the assay plate using the ECHO 550 [Labcyte]. HDAC enzymes at the concentrations indicated above were added in assay buffer to the assay plates containing the compounds using a Combi [Thermo Scientific]. The wells were mixed, and the plates were allowed to pre-incubate at ambient temperature for 3 h. After the 3 h, the appropriate substrate, at the concentrations indicated above, was added to the wells using a Combi. The wells were mixed, and the plates were allowed to incubate at ambient temperature for 1 h. After the 1 h, the appropriate Developer/stop solution was added to the wells using a Combi. The wells were mixed, and the plates were allowed to incubate at ambient temperature for 1 h. […] Data were analyzed using 4P curve fitting with Activity Base [IDBS] software.

HDAC8 = HDAC8 (Homo sapiens (Human), UniProt Q9BY41); conditions: read-out: HDAC8 IC50
HDAC8, sequence (Q9BY41 whole entry): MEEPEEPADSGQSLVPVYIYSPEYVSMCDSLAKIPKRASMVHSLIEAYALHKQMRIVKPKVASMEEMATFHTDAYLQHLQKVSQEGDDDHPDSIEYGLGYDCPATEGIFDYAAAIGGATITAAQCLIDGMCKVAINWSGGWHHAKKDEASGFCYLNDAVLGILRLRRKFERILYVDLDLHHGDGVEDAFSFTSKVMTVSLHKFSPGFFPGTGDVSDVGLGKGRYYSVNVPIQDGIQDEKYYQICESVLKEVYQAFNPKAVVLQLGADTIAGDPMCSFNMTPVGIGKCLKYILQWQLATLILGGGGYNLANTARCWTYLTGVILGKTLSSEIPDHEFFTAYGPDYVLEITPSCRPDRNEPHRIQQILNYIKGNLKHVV

HDAC1, sequence (Q13547 whole entry): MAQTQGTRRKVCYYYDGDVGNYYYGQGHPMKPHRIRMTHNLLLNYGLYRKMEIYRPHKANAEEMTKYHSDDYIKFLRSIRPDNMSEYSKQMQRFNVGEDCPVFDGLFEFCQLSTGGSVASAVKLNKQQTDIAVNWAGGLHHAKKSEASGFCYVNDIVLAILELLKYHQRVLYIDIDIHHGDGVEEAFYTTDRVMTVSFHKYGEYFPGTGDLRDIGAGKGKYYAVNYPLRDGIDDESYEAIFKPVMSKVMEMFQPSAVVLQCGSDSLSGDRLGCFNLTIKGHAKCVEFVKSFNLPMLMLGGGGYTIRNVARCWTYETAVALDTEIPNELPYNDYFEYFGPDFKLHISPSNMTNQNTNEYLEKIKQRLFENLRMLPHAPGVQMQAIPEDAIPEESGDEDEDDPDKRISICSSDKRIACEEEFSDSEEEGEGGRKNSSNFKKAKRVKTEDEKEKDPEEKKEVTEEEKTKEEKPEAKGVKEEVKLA

OCc1ccnc(NCc2ccc(-c3noc(C(F)(F)F)n3)cn2)c1 [Example 367, {2-[({5-[5-(trifluoromethyl)-1,2,4-oxadiazol-3-yl]pyridin-2-yl}methyl)amino]pyridin-4-yl}methanol]
IC50 (HDAC1): 0.82 µM | IC50 (HDAC8): 0.87 µM

FC(F)(F)c1nc(-c2ccc(CNc3cnccn3)nc2)no1 [Example 368, N-({5-[5-(trifluoromethyl)-1,2,4-oxadiazol-3-yl]pyridin-2-yl}methyl)pyrazin-2-amine]
IC50 (HDAC1): 1 µM | IC50 (HDAC8): 0.89 µM

FC(F)(F)c1nc(-c2ccc(CNc3cncnc3)nc2)no1 [Example 369, N-({5-[5-(trifluoromethyl)-1,2,4-oxadiazol-3-yl]pyridin-2-yl}methyl)pyrimidin-5-amine]
IC50 (HDAC1): 0.93 µM | IC50 (HDAC8): 0.96 µM

FC(F)(F)c1nc(-c2ccc(CNc3ccc4ccncc4c3)nc2)no1 [Example 370, N-({5-[5-(trifluoromethyl)-1,2,4-oxadiazol-3-yl]pyridin-2-yl}methyl)isoquinolin-7-amine]
IC50 (HDAC1): 0.068 µM | IC50 (HDAC8): 0.86 µM

O=C1NC(=O)[C@]2(CC[C@H](NCc3ccc(-c4noc(C(F)(F)F)n4)cn3)CC2)N1 [Example 376, (5s,8s)-8-[({5-[5-(trifluoromethyl)-1,2,4-oxadiazol-3-yl]pyridin-2-yl}methyl)amino]-1,3-diazaspiro[4.5]decane-2,4-dione]
IC50 (HDAC1): 3.4 µM | IC50 (HDAC8): 3.9 µM

FC(F)(F)c1nc(-c2ccc(CNC3Cc4ccccc4C3)nc2)no1 [Example 378, N-({5-[5-(trifluoromethyl)-1,2,4-oxadiazol-3-yl]pyridin-2-yl}methyl)-2,3-dihydro-1H-inden-2-amine]
IC50 (HDAC1): 0.63 µM | IC50 (HDAC8): 4.2 µM

FC(F)(F)c1nc(-c2ccc(CNC3CCN(c4ccccn4)CC3)nc2)no1 [Example 379, 1-(pyridin-2-yl)-N-({5-[5-(trifluoromethyl)-1,2,4-oxadiazol-3-yl]pyridin-2-yl}methyl)piperidin-4-amine]
IC50 (HDAC1): 1.9 µM | IC50 (HDAC8): 7.7 µM

Cc1cc(NCc2ccc(-c3noc(C(F)(F)F)n3)cn2)on1 [Example 380, 3-methyl-N-({5-[5-(trifluoromethyl)-1,2,4-oxadiazol-3-yl]pyridin-2-yl}methyl)-1,2-oxazol-5-amine]
IC50 (HDAC1): 0.93 µM | IC50 (HDAC8): 1.4 µM

FC(F)(F)c1nc(-c2ccc(CNc3ccccn3)cc2)no1 [Example 382, N-{4-[5-(trifluoromethyl)-1,2,4-oxadiazol-3-yl]benzyl}pyridin-2-amine]
IC50 (HDAC1): 1.6 µM | IC50 (HDAC8): 2.1 µM

FC(F)(F)c1nc(-c2ccc(CNc3cccnc3)cc2)no1 [Example 383, N-{4-[5-(trifluoromethyl)-1,2,4-oxadiazol-3-yl]benzyl}pyridin-3-amine]
IC50 (HDAC1): 1.7 µM | IC50 (HDAC8): 3.1 µM

FC(F)(F)c1nc(-c2ccc(CNc3ncccn3)cc2)no1 [Example 386, N-{4-[5-(trifluoromethyl)-1,2,4-oxadiazol-3-yl]benzyl}pyrimidin-2-amine]
IC50 (HDAC1): 5.3 µM | IC50 (HDAC8): 3.9 µM

Cn1nccc1CCOc1cc(-c2noc(C(F)(F)F)n2)ccn1 [Example 387, 2-[2-(1-methyl-1H-pyrazol-5-yl)ethoxy]-4-[5-(trifluoromethyl)-1,2,4-oxadiazol-3-yl]pyridine]
IC50 (HDAC1): 3.1 µM | IC50 (HDAC8): 0.88 µM

O=c1ccc2ccc(C(F)(F)F)cc2n1Cc1ccc(-c2noc(C(F)(F)F)n2)cn1 [Example 388, 7-(trifluoromethyl)-1-({5-[5-(trifluoromethyl)-1,2,4-oxadiazol-3-yl]pyridin-2-yl}methyl)quinolin-2(1H)-one]
IC50 (HDAC1): 0.28 µM | IC50 (HDAC8): 4.9 µM

CC(C)(C(=O)N(Cc1ccc(-c2noc(C(F)(F)F)n2)cn1)c1cccc(F)c1)n1cccn1 [Example 391, N-(3-fluorophenyl)-2-methyl-2-(1H-pyrazol-1-yl)-N-({5-[5-(trifluoromethyl)-1,2,4-oxadiazol-3-yl]pyridin-2-yl}methyl)propanamide]
IC50 (HDAC1): 1.4 µM | IC50 (HDAC8): 7.4 µM

CC(C)(C(=O)N(Cc1ccc(-c2noc(C(F)(F)F)n2)cn1)c1cccc(F)c1)n1cncn1 [Example 392, N-(3-fluorophenyl)-2-methyl-2-(1H-1,2,4-triazol-1-yl)-N-({5-[5-(trifluoromethyl)-1,2,4-oxadiazol-3-yl]pyridin-2-yl}methyl)propanamide]
IC50 (HDAC1): 0.48 µM | IC50 (HDAC8): 3.1 µM

Cc1n[nH]c(CC(=O)N(Cc2ccc(-c3noc(C(F)(F)F)n3)cn2)c2cccc(F)c2)n1 [Example 393, N-(3-fluorophenyl)-2-(3-methyl-1H-1,2,4-triazol-5-yl)-N-({5-[5-(trifluoromethyl)-1,2,4-oxadiazol-3-yl]pyridin-2-yl}methyl)acetamide]
IC50 (HDAC1): 0.41 µM | IC50 (HDAC8): 3.4 µM

Cc1ncc(CC(=O)N(Cc2ccc(-c3noc(C(F)(F)F)n3)cn2)c2cccc(F)c2)s1 [Example 394, N-(3-fluorophenyl)-2-(2-methyl-1,3-thiazol-5-yl)-N-({5-[5-(trifluoromethyl)-1,2,4-oxadiazol-3-yl]pyridin-2-yl}methyl)acetamide]
IC50 (HDAC1): 0.73 µM | IC50 (HDAC8): 2.4 µM

Cc1nnc(CC(=O)N(Cc2ccc(-c3noc(C(F)(F)F)n3)cn2)c2cccc(F)c2)s1 [Example 395, N-(3-fluorophenyl)-2-(5-methyl-1,3,4-thiadiazol-2-yl)-N-({5-[5-(trifluoromethyl)-1,2,4-oxadiazol-3-yl]pyridin-2-yl}methyl)acetamide]
IC50 (HDAC1): 0.33 µM | IC50 (HDAC8): 1.3 µM

Cc1noc(CC(=O)N(Cc2ccc(-c3noc(C(F)(F)F)n3)cn2)c2cccc(F)c2)n1 [Example 396, N-(3-fluorophenyl)-2-(3-methyl-1,2,4-oxadiazol-5-yl)-N-({5-[5-(trifluoromethyl)-1,2,4-oxadiazol-3-yl]pyridin-2-yl}methyl)acetamide]
IC50 (HDAC1): 0.38 µM | IC50 (HDAC8): 1 µM

O=C(Cc1[nH]nc2ccccc12)N(Cc1ccc(-c2noc(C(F)(F)F)n2)cn1)c1cccc(F)c1 [Example 397, N-(3-fluorophenyl)-2-(2H-indazol-3-yl)-N-({5-[5-(trifluoromethyl)-1,2,4-oxadiazol-3-yl]pyridin-2-yl}methyl)acetamide]
IC50 (HDAC1): 0.42 µM | IC50 (HDAC8): 1.1 µM

CC(C)c1ncncc1C(=O)N(Cc1ccc(-c2noc(C(F)(F)F)n2)cn1)c1cccc(F)c1 [Example 399, N-(3-fluorophenyl)-4-(1-methylethyl)-N-({5-[5-(trifluoromethyl)-1,2,4-oxadiazol-3-yl]pyridin-2-yl}methyl)pyrimidine-5-carboxamide]
IC50 (HDAC1): 0.93 µM | IC50 (HDAC8): 3.1 µM

Cc1ccc(C(=O)N(Cc2ccc(-c3noc(C(F)(F)F)n3)cn2)c2cccc(F)c2)nn1 [Example 400, N-(3-fluorophenyl)-6-methyl-N-({5-[5-(trifluoromethyl)-1,2,4-oxadiazol-3-yl]pyridin-2-yl}methyl)pyridazine-3-carboxamide]
IC50 (HDAC1): 0.26 µM | IC50 (HDAC8): 3.2 µM

Cc1ncc(C(=O)N(Cc2ccc(-c3noc(C(F)(F)F)n3)cn2)c2cccc(F)c2)cn1 [Example 401, N-(3-fluorophenyl)-2-methyl-N-({5-[5-(trifluoromethyl)-1,2,4-oxadiazol-3-yl]pyridin-2-yl}methyl)pyrimidine-5-carboxamide]
IC50 (HDAC1): 0.29 µM | IC50 (HDAC8): 3.3 µM

CS(=O)(=O)N1CC(C(=O)N(Cc2ccc(-c3noc(C(F)(F)F)n3)cn2)c2cccc(F)c2)C1 [Example 404, N-(3-fluorophenyl)-1-(methylsulfonyl)-N-({5-[5-(trifluoromethyl)-1,2,4-oxadiazol-3-yl]pyridin-2-yl}methyl)azetidine-3-carboxamide]
IC50 (HDAC1): 0.28 µM | IC50 (HDAC8): 1.3 µM

O=C(C1CCN(C2CC2)CC1)N(Cc1ccc(-c2noc(C(F)(F)F)n2)cn1)c1cccc(F)c1 [Example 406, 1-cyclopropyl-N-(3-fluorophenyl)-N-({5-[5-(trifluoromethyl)-1,2,4-oxadiazol-3-yl]pyridin-2-yl}methyl)piperidine-4-carboxamide]
IC50 (HDAC1): 0.27 µM | IC50 (HDAC8): 1.8 µM

FC(F)(F)c1nc(-c2ccc(CNc3ccc4c[nH]nc4c3)cc2)no1 [Example 411, N-{4-[5-(trifluoromethyl)-1,2,4-oxadiazol-3-yl]benzyl}-2H-indazol-6-amine]
IC50 (HDAC1): 1 µM | IC50 (HDAC8): 2.2 µM

FC(F)(F)c1nc(-c2ccc(CNc3cccc4[nH]ncc34)cc2)no1 [Example 415, N-{4-[5-(trifluoromethyl)-1,2,4-oxadiazol-3-yl]benzyl}-1H-indazol-4-amine]
IC50 (HDAC1): 1.6 µM | IC50 (HDAC8): 2.5 µM

FC(F)(F)c1nc(-c2ccc(CNc3cnccn3)cc2)no1 [Example 417, N-{4-[5-(trifluoromethyl)-1,2,4-oxadiazol-3-yl]benzyl}pyrazin-2-amine]
IC50 (HDAC1): 2.6 µM | IC50 (HDAC8): 1.9 µM

OCc1ccnc(NCc2ccc(-c3noc(C(F)(F)F)n3)cc2)n1 [Example 418, [2-({4-[5-(trifluoromethyl)-1,2,4-oxadiazol-3-yl]benzyl}amino)pyrimidin-4-yl]methanol]
IC50 (HDAC1): 3.6 µM | IC50 (HDAC8): 3.2 µM

FC(F)(F)c1nc(-c2ccc(CNc3cncnc3)cc2)no1 [Example 419, N-{4-[5-(trifluoromethyl)-1,2,4-oxadiazol-3-yl]benzyl}pyrimidin-5-amine]
IC50 (HDAC1): 2.6 µM | IC50 (HDAC8): 1.9 µM

COCc1cc(=O)n(Cc2ccc(-c3noc(C(F)(F)F)n3)cn2)c2ccccc12 [Example 420, 4-(methoxymethyl)-1-({5-[5-(trifluoromethyl)-1,2,4-oxadiazol-3-yl]pyridin-2-yl}methyl)quinolin-2(1H)-one]
IC50 (HDAC1): 0.11 µM | IC50 (HDAC8): 1 µM

FC(F)(F)c1nc(-c2ccnc(OC[C@@H]3C[C@@H]3c3ncccn3)c2)no1 [Example 424, 2-{(1S,2R)-2-[({4-[5-(trifluoromethyl)-1,2,4-oxadiazol-3-yl]pyridin-2-yl}oxy)methyl]cyclopropyl}pyrimidine]
IC50 (HDAC1): 2.6 µM | IC50 (HDAC8): 0.32 µM

COCCN1Cc2ccccc2N(Cc2ccc(-c3noc(C(F)(F)F)n3)cn2)C1=O [Example 429, 3-(2-methoxyethyl)-1-({5-[5-(trifluoromethyl)-1,2,4-oxadiazol-3-yl]pyridin-2-yl}methyl)-3,4-dihydroquinazolin-2(1H)-one]
IC50 (HDAC1): 0.46 µM | IC50 (HDAC8): 2.3 µM
